For assay [1], the target named is D(2) dopamine receptor (Rattus norvegicus, UniProt P61169). Nature of the assay: ChEBML_61741.
Description: Inhibitory concentration against radioligand [3H]spiperone binding to rat striatal Dopamine receptor D2
Assay [2] concerns the target Serotonin 2 (5-HT2) receptor (Rattus norvegicus, UniProt P08909+P14842+P30994). Briefly: ChEBML_1935. From the text: Inhibitory concentration against radioligand [3H]spiperone binding to 5-hydroxytryptamine 2 receptor in rat cortex

D(2) dopamine receptor, sequence (P61169 whole entry): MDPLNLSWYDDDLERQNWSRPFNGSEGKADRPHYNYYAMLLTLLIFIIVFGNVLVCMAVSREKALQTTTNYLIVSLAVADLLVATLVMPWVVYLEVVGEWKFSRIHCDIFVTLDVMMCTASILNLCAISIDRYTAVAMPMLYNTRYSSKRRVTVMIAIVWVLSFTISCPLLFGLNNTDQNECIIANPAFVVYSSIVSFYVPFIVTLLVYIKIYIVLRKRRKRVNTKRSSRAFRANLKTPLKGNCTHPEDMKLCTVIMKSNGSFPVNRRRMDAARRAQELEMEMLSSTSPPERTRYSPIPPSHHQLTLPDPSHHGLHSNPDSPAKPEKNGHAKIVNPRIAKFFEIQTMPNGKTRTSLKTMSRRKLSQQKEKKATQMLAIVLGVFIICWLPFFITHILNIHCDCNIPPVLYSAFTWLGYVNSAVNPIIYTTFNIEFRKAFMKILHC
Serotonin 2 (5-HT2) receptor, sequence (P14842 whole entry): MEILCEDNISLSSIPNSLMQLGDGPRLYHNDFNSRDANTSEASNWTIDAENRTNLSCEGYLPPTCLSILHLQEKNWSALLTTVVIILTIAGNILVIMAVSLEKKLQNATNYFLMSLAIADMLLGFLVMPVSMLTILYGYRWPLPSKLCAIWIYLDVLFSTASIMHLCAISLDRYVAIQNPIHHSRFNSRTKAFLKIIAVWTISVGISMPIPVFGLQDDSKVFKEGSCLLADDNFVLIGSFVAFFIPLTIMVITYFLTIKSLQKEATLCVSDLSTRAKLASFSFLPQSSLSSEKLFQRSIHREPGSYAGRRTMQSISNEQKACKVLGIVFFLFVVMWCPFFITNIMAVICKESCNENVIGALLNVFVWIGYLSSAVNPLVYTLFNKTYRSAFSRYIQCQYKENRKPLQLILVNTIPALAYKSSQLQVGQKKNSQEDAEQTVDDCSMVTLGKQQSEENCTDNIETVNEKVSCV
Serotonin 2 (5-HT2) receptor, sequence (P08909 whole entry): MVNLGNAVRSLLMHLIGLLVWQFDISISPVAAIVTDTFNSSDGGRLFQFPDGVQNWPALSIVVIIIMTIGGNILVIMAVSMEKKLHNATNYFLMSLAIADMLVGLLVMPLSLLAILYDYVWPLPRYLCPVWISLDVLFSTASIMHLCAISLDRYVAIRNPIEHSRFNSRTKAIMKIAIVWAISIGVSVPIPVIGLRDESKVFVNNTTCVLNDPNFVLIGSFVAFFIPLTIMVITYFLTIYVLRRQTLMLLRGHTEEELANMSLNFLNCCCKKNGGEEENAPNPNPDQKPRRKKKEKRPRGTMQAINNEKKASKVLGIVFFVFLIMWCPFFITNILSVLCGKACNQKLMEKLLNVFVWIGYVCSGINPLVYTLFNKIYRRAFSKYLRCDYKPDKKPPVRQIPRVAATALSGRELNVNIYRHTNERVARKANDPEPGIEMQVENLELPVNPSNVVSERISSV
Serotonin 2 (5-HT2) receptor, sequence (P30994 whole entry): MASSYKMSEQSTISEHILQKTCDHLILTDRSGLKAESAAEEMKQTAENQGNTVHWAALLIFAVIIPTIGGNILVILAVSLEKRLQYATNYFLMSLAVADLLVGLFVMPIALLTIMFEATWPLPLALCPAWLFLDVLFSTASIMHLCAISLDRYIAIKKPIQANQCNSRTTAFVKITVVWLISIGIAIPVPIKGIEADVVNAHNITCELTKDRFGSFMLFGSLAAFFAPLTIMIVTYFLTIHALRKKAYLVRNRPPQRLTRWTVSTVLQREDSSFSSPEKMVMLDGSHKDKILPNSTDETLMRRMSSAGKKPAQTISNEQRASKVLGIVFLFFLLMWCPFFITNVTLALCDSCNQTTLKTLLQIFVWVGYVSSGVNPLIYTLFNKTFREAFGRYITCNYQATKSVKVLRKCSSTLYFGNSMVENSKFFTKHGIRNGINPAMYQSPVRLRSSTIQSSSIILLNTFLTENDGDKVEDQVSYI

One may read the IC50 as the concentration needed to halve the response being measured. Read a low IC50 as higher potency. For `OC(CCCN1CCN(c2ncc(F)cn2)CC1)c1ccc(F)cc1` (configuration not stated) [1-(4-fluorophenyl)-4-(4-(5-fluoropyrimidin-2-yl)piperazin-1-yl)butan-1-ol], the IC50 in assay [1] worked out at 6.43 µM; in assay [2], 1.7 µM.

The record behind these values is BindingDB's records for doi:10.1021/jm00102a002 (Bristol-Myers Squibb, 1993).
